# Measured values taken from patent publication US8455663B2, “Halosubstituted aryloxyalkylimidazolines for use as pesticides” (Syngenta Crop Protection LLC, priority 2007, dated 2013).
# Like-named read-outs stand apart in the source and are kept apart here.
# Key:
# Type in all cases: in vivo
# [1] = system: T. Urticae; assay: Tetranychus urticae bean leaf disc test, comparison with prior art compounds A and B; settings: 12.5 ppm spray on bean leaf discs; mixed ages; 8 days; egg, larval and adult mortality
# Excerpt: 4.4.2 In a further test, the efficacy of one of the compounds giving 100% control in Example 4.4.1 above was compared to the efficacy of imidazoline compounds from the prior art (compounds A and B).
# Bean leaf discs on agar in 24-well microtiter plates were sprayed with test solutions at an application rate of 12.5 ppm. After drying, the leaf discs are infested with mite populations of mixed ages. 8 days later, discs are checked for egg mortality, larval mortality, and adult mortality.
# [2] = system: Myzus persicae; assay: Myzus persicae (green peach aphid) sunflower leaf disc spray test; settings: for pest or weed control at 200 ppm: Myzus persicae, foliar, 144 h, read-out: control of Myzus persicae
# Method: 4.2 Myzus Persicae (Green Peach Aphid):
# Sunflower leaf discs were placed on agar in a 24-well microtiter plate and sprayed with test solutions at an application rate of 200 ppm. After drying, the leaf discs were infested with an aphid population of mixed ages. After an incubation period of 6 DAT, samples were checked for mortality.
# [3] = system: Heliothis virescens; assay: Heliothis virescens (tobacco budworm) egg/larvae test on artificial diet; settings: for pest or weed control at 200 ppm: Heliothis virescens, 96 h, read-out: control of Heliothis virescens
# Method: 4.1 Heliothis Virescens (Tobacco Budworm):
# Eggs (0-24 h old) were placed in 24-well microtiter plate on artificial diet and treated with test solutions at an application rate of 200 ppm by pipetting. After an incubation period of 4 days, samples were checked for egg mortality, larval mortality, and growth regulation.
# [4] = system: Tetranychus urticae; assay: Tetranychus urticae (two-spotted spider mite) bean leaf disc spray test; settings: for pest or weed control at 200 ppm: Tetranychus urticae, foliar, 192 h, read-out: control of Tetranychus urticae
# Excerpt: 4.4 Tetranychus Urticae (Two-Spotted Spider Mite):
# 4.4.1 Bean leaf discs on agar in 24-well microtiter plates were sprayed with test solutions at an application rate of 200 ppm. After drying, the leaf discs are infested with mite populations of mixed ages. 8 days later, discs are checked for egg mortality, larval mortality, and adult mortality.
# [5] = system: Myzus persicae; assay: Myzus persicae (green peach aphid) pea seedling root uptake test; settings: for pest or weed control at 24 ppm: Myzus persicae, 144 h, read-out: control of Myzus persicae
# Excerpt: 4.3 Myzus Persicae (Green Peach Aphid):
# Roots of pea seedlings, infested with an aphid population of mixed ages, were placed directly in the test solutions of 24 ppm. 6 days after introduction, samples were checked for mortality.
# [6] = 200 ppm spray on sunflower leaf discs, mixed ages, 6 DAT, mortality
# [7] = 200 ppm by pipetting on eggs (0-24 h old) on artificial diet, 4 days, egg mortality, larval mortality, growth regulation
# [8] = 200 ppm spray on bean leaf discs, mixed ages, 8 days, egg, larval and adult mortality
# [9] = 24 ppm test solution, roots of infested pea seedlings, 6 days, mortality
Structure (SMILES),"pest or weed control at 200 ppm [2, 6] [%]","pest or weed control at 200 ppm [3, 7] [%]","pest or weed control at 200 ppm [4, 8] [%]","pest or weed control at 24 ppm [5, 9] [%]",also measured
CCC(Oc1cccc(Cl)c1Cl)C1=NCCN1 (stereo not drawn) [A],,,,,Control % [1]: 0%
CCC(Oc1cccc(C)c1Cl)C1=NCCN1 (stereo not drawn) [B],,,,,Control % [1]: 50%
"CCC(Oc1cccc(C(F)(F)F)c1Cl)C1=NCCN1 (stereo not drawn) [Compound 1.001, 2-[1-(2-Chloro-3-trifluormethyl-phenoxy)-propyl]-4,5-dihydro-1H-imidazole]",100,50,100,100,Control % [1]: 80%
"CCC(Oc1cccc(C(F)F)c1Cl)C1=NCCN1 (stereo not drawn) [Compound 1.002, 2-[1-(2-Chloro-3-difluoromethyl-phenoxy)-propyl]-4,5-dihydro-1H-imidazole]",,,,,pest or weed control at 200 ppm [2]: 100%; pest or weed control at 200 ppm [3]: 0%; pest or weed control at 200 ppm [4]: 100%; pest or weed control at 24 ppm [5]: 80%
CCC(Oc1cccc(C(F)F)c1Cl)C1=NCCN1C(=O)OC(C)(C)C (stereo not drawn) [Compound 1.003],100,0,0,0,
CCC(Oc1cccc(CO)c1Cl)C1=NCCN1 (stereo not drawn) [Compound 1.005],0,0,0,0,
CCC(Oc1cccc(CF)c1Cl)C1=NCCN1 (stereo not drawn) [Compound 1.006],100,100,100,80,
CCC(Oc1cccc(CO)c1Cl)C1=NCCN1C(=O)OC(C)(C)C (stereo not drawn) [Compound 1.007],0,0,0,,
CCC(Oc1cccc(COC)c1Cl)C1=NCCN1 (stereo not drawn) [Compound 1.008],,,,,"control of Myzus persicae [2, 6]: 0%; control of Heliothis virescens [3, 7]: 80%; control of Tetranychus urticae [4, 8]: 0%"
"C#Cc1cccc(OC(CC)C2=NCCN2)c1Cl (stereo not drawn) [Compound 1.011, 2-[1-(2-Chloro-3-ethynyl-phenoxy)-propyl]-4,5-dihydro-1H-imidazole]",50,50,0,,
C=Cc1cccc(OC(CC)C2=NCCN2)c1Cl (stereo not drawn) [Compound 1.012],0,0,0,,
CC(Oc1cccc(C(F)(F)F)c1Cl)C1=NCCN1 (stereo not drawn) [Compound 1.014],100,80,80,50,
CCCC(Oc1cccc(C(F)(F)F)c1Cl)C1=NCCN1 (stereo not drawn) [Compound 1.015],,,,,"control of Myzus persicae [2, 6]: 100%; control of Heliothis virescens [3, 7]: 100%; control of Tetranychus urticae [4, 8]: 100%; control of Myzus persicae [5, 9]: 50%"
CC(C)C(Oc1cccc(C(F)(F)F)c1Cl)C1=NCCN1 (stereo not drawn) [Compound 1.016],100,0,100,80,
C=Cc1cccc(OC(CC)C2=NCCN2C(=O)OC(C)(C)C)c1Cl (stereo not drawn) [Compound 1.017],0,0,0,,
CCC(Oc1cccc(CSC)c1Cl)C1=NCCN1 (stereo not drawn) [Compound 1.019],,,,,"control of Myzus persicae [2, 6]: 0%; control of Heliothis virescens [3, 7]: 0%; control of Tetranychus urticae [4, 8]: 0%"
CCC(Oc1cccc(C(F)(F)F)c1I)C1=NCCN1.O=C(O)/C=C\C(=O)O (stereo not drawn) [Compound 1.020],,,,,"control of Myzus persicae [2, 6]: 100%; control of Heliothis virescens [3, 7]: 0%; control of Tetranychus urticae [4, 8]: 100%; control of Myzus persicae [5, 9]: 80%"

Structure (SMILES),"pest or weed control at 200 ppm [2, 6] [%]","pest or weed control at 200 ppm [3, 7] [%]","pest or weed control at 200 ppm [4, 8] [%]","pest or weed control at 24 ppm [5, 9] [%]",also measured
CCCC(Oc1cccc(Br)c1Br)C1=NCCN1 (stereo not drawn) [Compound 1.021],100,100,100,0,
CCCC(Oc1cccc(I)c1Br)C1=NCCN1 (stereo not drawn) [Compound 1.022],100,50,80,,
CC(Oc1cccc(C(F)F)c1Cl)C1=NCCN1 (stereo not drawn) [Compound 1.023],100,80,0,0,
CCC(Oc1cccc(C#N)c1Cl)C1=NCCN1 (stereo not drawn) [Compound 1.024],80,0,100,50,
CCC(Oc1cccc(C#N)c1Cl)C1=NCCN1C(=O)OC(C)(C)C (stereo not drawn) [Compound 1.025],0,0,50,,
CCCCC(Oc1cccc(C(F)(F)F)c1Cl)C1=NCCN1 (stereo not drawn) [Compound 1.027],80,50,100,0,
CCCC(Oc1cccc(C(F)F)c1Cl)C1=NCCN1 (stereo not drawn) [Compound 1.028],100,80,100,100,
CCCCC(Oc1cccc(C(F)F)c1Cl)C1=NCCN1 (stereo not drawn) [Compound 1.029],,80,,,
CC(C)C(Oc1cccc(C(F)F)c1Cl)C1=NCCN1 (stereo not drawn) [Compound 1.030],100,0,100,80,
CCCC(Oc1cccc(CF)c1Cl)C1=NCCN1 (stereo not drawn) [Compound 1.031],100,0,100,80,
CCCCC(Oc1cccc(CF)c1Cl)C1=NCCN1 (stereo not drawn) [Compound 1.032],100,0,0,50,
CCCC(Oc1cccc(I)c1Cl)C1=NCCN1 (stereo not drawn) [Compound 1.033],100,80,80,0,
CCC(Oc1cccc(CCl)c1Cl)C1=NCCN1C(=O)OC(C)(C)C (stereo not drawn) [Compound 1.034],,,,,"control of Myzus persicae [2, 6]: 0%; control of Heliothis virescens [3, 7]: 100%; control of Tetranychus urticae [4, 8]: 0%"
CCC(Oc1cccc(C[S+](C)[O-])c1Cl)C1=NCCN1 (stereo not drawn) [Compound 1.035],,,,,"control of Myzus persicae [2, 6]: 0%; control of Heliothis virescens [3, 7]: 0%; control of Tetranychus urticae [4, 8]: 0%"
CCCC(Oc1cccc(Br)c1Cl)C1=NCCN1 (stereo not drawn) [Compound 1.036],100,100,100,0,
CC(C)C(Oc1cccc(CF)c1Cl)C1=NCCN1 (stereo not drawn) [Compound 1.037],100,80,100,50,
